Some test systems named below: SF-268 CNS; HCT-116 colon; SNB-75 CNS; M14 melanoma; RXF 393 renal; SF-539 CNS; MDA-MB-435; HL-60(TB) leukemia; SNB-19 CNS; CAKI-1 renal; OVCAR-3 ovarian; OVCAR-5 ovarian; T-47D breast; EKVX NSCLC; 786-0 renal; NCI-H23 lung; MDA-N; NCI-H226 lung; HOP-62 NSCLC; HCC-2998 colon.
What all share (assay): growth of human tumour cells (NCI), 48 h

Each structure is given as a SMILES string.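 Exposure lasted 48 hours, with cells grown in 96-well plates and compounds tested at five concentrations. The concentration for full growth arrest is given as TGI.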 Where only a bound is given, the exact number is not on record here.

For the compound `CC(=O)O[C@@H]1[C@@H](C)[C@]2(CC(c3ccoc3)OC2O)C2CCC3O[C@]3(C)[C@]2(C)[C@@H]1OC(C)=O` (stereo not given in full), the TGI is greater than 100 µM in the assay with SF-268 CNS; greater than 100 µM with HCT-116 colon; greater than 100 µM in the assay on SNB-75 CNS; greater than 100 µM in the assay with M14 melanoma; greater than 100 µM with RXF 393 renal; 65.3 µM with SF-539 CNS. Also, the TGI in the assay on MDA-MB-435 was greater than 100 µM; in the assay with HL-60(TB) leukemia it was 48.7 µM; with SNB-19 CNS, greater than 100 µM; in the assay on CAKI-1 renal, greater than 100 µM; in the assay on OVCAR-3 ovarian, greater than 100 µM; in the assay on OVCAR-5 ovarian, greater than 100 µM. Also, the TGI was 86.8 µM in the assay with T-47D breast; greater than 100 µM in the assay with EKVX NSCLC; 39.9 µM with 786-0 renal; greater than 100 µM in the assay with NCI-H23 lung; greater than 100 µM with MDA-N; 87.9 µM with NCI-H226 lung.
In the case of `c1ccc(-c2sc(-c3ccccc3)c3c2C2CCC3C2)cc1`, the TGI with SF-268 CNS was greater than 100 µM; in the assay with HCT-116 colon it was greater than 100 µM; in the assay with M14 melanoma it was greater than 100 µM; with RXF 393 renal it was 84.5 µM; in the assay on SF-539 CNS it was 67.7 µM; in the assay on MDA-MB-435, greater than 100 µM. In addition, the TGI with HL-60(TB) leukemia, in the assay with SNB-19 CNS, with CAKI-1 renal, in the assay on OVCAR-3 ovarian, in the assay with OVCAR-5 ovarian and in the assay on T-47D breast was greater than 100 µM throughout. Further, the TGI in the assay with EKVX NSCLC was greater than 100 µM; with 786-0 renal it was greater than 100 µM; in the assay on HOP-62 NSCLC, greater than 100 µM; with NCI-H23 lung it was greater than 100 µM; in the assay with MDA-N it was greater than 100 µM; in the assay with NCI-H226 lung it was 83.3 µM.
`COc1ccc2[nH]c3c(C)c4ccnc(NCCCN(C)CCCN)c4c(C)c3c2c1`: the TGI in the assay on SNB-75 CNS was 0.0976 µM; with M14 melanoma it was 0.335 µM; with SF-539 CNS, 0.28 µM; with MDA-MB-435 it was 0.401 µM; with SNB-19 CNS it was 0.403 µM; in the assay on CAKI-1 renal, 0.551 µM. Also, the TGI in the assay with OVCAR-3 ovarian worked out at 1.54 µM; in the assay on OVCAR-5 ovarian, 0.725 µM; in the assay with T-47D breast it was 0.814 µM; in the assay on EKVX NSCLC, 0.538 µM; in the assay with 786-0 renal it was 0.39 µM; with HOP-62 NSCLC it was 0.385 µM. In addition, the TGI with HCC-2998 colon is 0.376 µM; in the assay on NCI-H23 lung, 0.87 µM; in the assay with MDA-N, 0.496 µM; in the assay on NCI-H226 lung it was 0.223 µM.
Consider `Cc1ccc(N(C)S(=O)(=O)c2ccccc2)cc1`, for which the TGI with SF-268 CNS, with HCT-116 colon, in the assay on SNB-75 CNS, in the assay with M14 melanoma, in the assay with RXF 393 renal and in the assay with SF-539 CNS was greater than 100 µM throughout. In addition, the TGI in the assay with MDA-MB-435, in the assay with SNB-19 CNS, in the assay with CAKI-1 renal, with OVCAR-3 ovarian, in the assay with OVCAR-5 ovarian and with T-47D breast was greater than 100 µM throughout. Further, the TGI with EKVX NSCLC, with 786-0 renal, with HOP-62 NSCLC, in the assay with HCC-2998 colon, in the assay with NCI-H23 lung and in the assay on MDA-N was greater than 100 µM each time. This compound also had a TGI in the assay on NCI-H226 lung greater than 100 µM.
`Nc1nc(Cl)cc(NCC2(CO)CC(c3ccccc3)C2)n1` (stereo not given): the TGI in the assay with SF-268 CNS, in the assay with HCT-116 colon, with SNB-75 CNS, in the assay on M14 melanoma, in the assay on RXF 393 renal and in the assay on SF-539 CNS was greater than 100 µM each time. In addition, the TGI was greater than 100 µM in the assay on MDA-MB-435; 56.9 µM in the assay on HL-60(TB) leukemia; greater than 100 µM in the assay with SNB-19 CNS; greater than 100 µM in the assay with CAKI-1 renal; greater than 100 µM in the assay on OVCAR-3 ovarian; greater than 100 µM in the assay on OVCAR-5 ovarian. Moreover, the TGI in the assay with T-47D breast is greater than 100 µM; in the assay on EKVX NSCLC, 84.5 µM; in the assay on 786-0 renal it was greater than 100 µM; with HOP-62 NSCLC, greater than 100 µM; in the assay with NCI-H23 lung it was greater than 100 µM; in the assay with MDA-N, greater than 100 µM. Moreover, the TGI with NCI-H226 lung was greater than 100 µM.
Take `CNC(=O)C1CCC(=O)N1CN(C(C)=O)c1ccccc1` (stereo not given): the TGI in the assay with SF-268 CNS, in the assay on HCT-116 colon, in the assay on SNB-75 CNS, with M14 melanoma, with RXF 393 renal and in the assay on SF-539 CNS was greater than 100 µM in each case. Moreover, the TGI in the assay on MDA-MB-435, in the assay on SNB-19 CNS, in the assay with CAKI-1 renal, in the assay on OVCAR-3 ovarian, with OVCAR-5 ovarian and in the assay with T-47D breast was greater than 100 µM each time. For the same compound, the TGI in the assay on EKVX NSCLC, with 786-0 renal, with HOP-62 NSCLC, with NCI-H23 lung, in the assay on MDA-N and in the assay on NCI-H226 lung was greater than 100 µM each time.
Regarding `CC(=O)N1N=C(c2ccccc2Nc2ccccc2C2=NN(C(C)=O)C(c3ccccc3)O2)OC1c1ccccc1` (stereo not given), the TGI in the assay with HCT-116 colon, in the assay with M14 melanoma, in the assay with RXF 393 renal, in the assay with MDA-MB-435, in the assay with SNB-19 CNS and in the assay with OVCAR-3 ovarian was greater than 100 µM in each case. Moreover, the TGI with OVCAR-5 ovarian, in the assay on T-47D breast, with EKVX NSCLC, in the assay with 786-0 renal, in the assay with HOP-62 NSCLC and in the assay with HCC-2998 colon was greater than 100 µM in each case. Also, the TGI with NCI-H23 lung, with MDA-N and in the assay with NCI-H226 lung was greater than 100 µM throughout.
`CCOC(=O)C1=COC(C)(C)CC1=O`: the TGI in the assay on SF-268 CNS, in the assay with HCT-116 colon, in the assay with SNB-75 CNS, in the assay on M14 melanoma, with RXF 393 renal and with SF-539 CNS was greater than 100 µM each time. The TGI with MDA-MB-435, with SNB-19 CNS, in the assay with CAKI-1 renal, in the assay with OVCAR-3 ovarian, in the assay on OVCAR-5 ovarian and with T-47D breast was greater than 100 µM in each case. For the same compound, the TGI with EKVX NSCLC, with 786-0 renal, in the assay on HOP-62 NSCLC, in the assay with NCI-H23 lung and in the assay with MDA-N was greater than 100 µM in each case.

The values are drawn from PubChem BioAssay (NCI).
